Twelve compounds from patent US20130337564A1, “Treatment of Pluripotent Cells” (Janssen Biotech, Inc., priority 2012, published 2013) can be followed below.

Each structure is given as a SMILES string. Where “and” joins values, the source holds several entries; their conditions need not be identical. Equal values may be shown once.

Assay [1] has as its system human embryonic stem cells (H9 or H1 lines). Put plainly: Plate reader (MTS) proliferation assay. Format: cell-based. To be noted: for activity at 10 µM: Homo sapiens, Embryonic stem cell, 96 h; for activity at 10 µM / % Control Value (proliferation): 10 μM test compound with 100 ng/ml activin A on days 1-2, MTS OD490 on day 4, vs Activin A/Wnt3a positive control, strong and moderate hits; for Average: average of replicate raw data; for Raw Data: replicate wells, plate reader proliferation screen of GSK-3B inhibitors. How it is done:
Maintenance of human embryonic stem cells (H9 or H1 lines) was conducted as described in Example 1. Colonies of cells were maintained in an undifferentiated, pluripotent state with passage on average every four days. Passage was performed by exposing cell cultures to a solution of collagenase (1 mg/ml; Sigma-Aldrich) for 10 to 30 minutes at 37° C. followed by gentle scraping with a pipette tip to recover cell clusters. Clusters were allowed to sediment and washed to remove residual collagenase. Cell clusters were split at a ratio of 1:3 monolayer area for routine culture or a 1:1 ratio for immediate assay. The human embryonis stem cell lines used for these examples were maintained at passage numbers less than 50 and routinely evaluated for normal karyotypic phenotype as well as absence of mycoplasm contamination.
Cell clusters used in assay were evenly resuspended in normal culture medium and plated into MATRIGEL-coated 96-well Packard VIEWPLATES (PerkinElmer) in volumes of 100 μl/well. MEF conditioned medium supplemented with 8 ng/ml bFGF) was used for initial plating and recovery. Daily feeding was conducted by aspirating spent culture medium from each well and replacing with an equal volume of fresh medium. Plates were maintained at 37° C. in a humidified box, 5% CO2 throughout the duration of assay.
Primary screening assays were initiated by aspirating culture medium from each well followed by three washes in PBS to remove residual growth factors and serum. Test volumes of 80-100 μl per well were added back containing DMEM:F12 base medium (Invitrogen) supplemented with 0.5% FCS (HyClone) and 100 ng/ml activin A (R&D Biosystems) and 10 μM test compound. Positive control wells contained the same medium substituting 10-20 ng/ml Wnt3a (R&D Biosystems). Negative control wells contained base medium with 0.5% FCS without activin A or Wnt3a. Screening compounds were tested in triplicate. Wells were aspirated and fed again with identical solutions on day 2 of the assay. On days 3 and 4, all assay wells were aspirated and converted to DMEM:F 12 supplemented with 2% FCS and 100 ng/ml activin A with the exception of negative control wells which were maintained in DMEM:F12 base medium with 2% FCS.
On day 4 of assay, 15-20 μl of MTS (Promega) was added to each well and plates were incubated at 37° C. for 1.5 to 4 hours. Densitometric readings at OD490 were determined using a Molecular Devices spectrophotometer plate reader. Average readings for replicate sets were calculated along with standard deviation and coefficient of variation. Experimental wells were compared to the Activin A/Wnt3a positive control to calculate a percent control value as a measure of proliferation.
Strong hits are defined as greater than or equal to 120% of control values; moderate hits are defined as falling within the interval of 60-120% of control values. A significant number of compounds induce a proliferative response in this assay.

The test system of assay [2] is cells expressing pluripotency markers derived from human embryonic stem cells. Put plainly: MTS viability (toxicity) assay of cells expressing pluripotency markers. The format is cell-based. Details: Raw data (duplicate), first replicate / Average: unit not given here. The settings on record: for viability at 10 µM: Homo sapiens, Embryonic stem cell; for viability at 10 µM / % Control: viability of cells expressing pluripotency markers, relative to control. How it is done:
Derivation and maintenance of cells expressing pluripotency makers was conducted as has been described in Example 2. Cells were grown in DMEM:F12 supplemented with 2% FCS (Invitrogen), 100 ng/ml Activin A, 20 ng/ml Wnt-3a, and 50 ng/ml IGF (R&D Biosystems). Cells were seeded at a density of 10,000 cells/cm^2 on Falcon polystyrene flasks and grown in monolayer culture at 37° C., 5% CO2, low oxygen. After reaching 60-70% confluence, cells were passed by washing the monolayer with PBS and incubating with TrypLE (Invitrogen) for 3-5 minutes to allow detachment and single cell dispersal.
Screening was conducted using test compounds from a proprietary library of small molecules selected for their ability to inhibit GSK-3B enzyme activity. Compounds from this library were made available as 1 mM stocks, in a 96-well plate format in 50 mM HEPES, 30% DMSO. For assay, cells expressing pluripotency markers were washed, counted, and plated in normal culture medium at a seeding density of 20,000 cells per well in 96-well clear-bottom, dark-well plates (Costar). This seeding density was previously determined to yield optimal monolayer formation in overnight culture. On the following day, culture medium was removed, cell monolayers were rinsed three times with PBS, and test compounds were added to the wells in 80 μl aliquots, each diluted into assay medium at a final assay concentration of 10 μM. On day 2 of the assay, medium was removed from each well and replaced with a fresh aliquot of test compounds diluted into assay medium. Assay medium on days 1 and 2 of culture consisted of DMEM:F12 supplemented with 0.5% FCS and 100 ng/ml Activin A. On days 3 and 4 of culture, medium was removed from each well and replaced with DMEM:F12 supplemented with 2% FCS and 100 ng/ml Activin A (no test compound). On day 4 of assay, 15 μl of MTS (Promega) was added to each well and plates were incubated at 37° C. for 1.5 to 4 hours prior to reading optical density at 490 nm on a SpectraMax (Molecular Devices) instrument. Statistical measures consisting of mean, standard deviation, and coefficient of variation were calculated for each duplicate set. Toxicity was calculated for each test well relative to a positive control (wells treated with Activin A and Wnt3a on days 1 and 2 of culture).
A larger proportion of the compounds have minimal or no measurable toxicity in this cell-based assay.
A small panel of select compounds was repeat tested over a narrow dose titration range, again using cells expressing pluripotency markers in a similar assay as described above.

Where [3] appears, read: MTS viability assay raw reading, replicate 1.
Setting [4] is: MTS viability assay raw reading, replicate 2.
[5] abbreviates: average of duplicate MTS raw readings.

One may read the viability as a read-out of living cells in per cent, often relative to untreated cells.

With `COc1ncc(C2=C(c3cn(CCCO)c4ncccc34)C(=O)NC2=O)c(OC)n1` [Compound 48, 3-[2,4-Bis(methyloxy)pyrimidin-5-yl]-4-[1-(3-hydroxypropyl)-1H-pyrrolo[2,3-b]pyridin-3-yl]-1H-pyrrole-2,5-dione], in assay [1], the activity at 10 µM came out at 148%.
For the compound `O=C1NC(=O)C(c2cn(CCCO)c3ncccc23)=C1c1cc[nH]c1` [Compound 242, 4-[1-(3-Hydroxypropyl)-1H-pyrrolo[2,3-b]pyridin-3-yl]-1H,1′H-3,3′-bipyrrole-2,5-dione], the viability at 10 µM in assay [2] is 71%. In assay [2] (MTS viability readout, average of duplicate raw data), the Average turned out to be 0.601. Moreover, in assay [2] (MTS viability readout, raw value of replicate 1), the “Raw data (duplicate), first replicate” value turned out to be 0.590. In assay [2] (MTS viability readout, raw value of replicate 2), the “Raw data (duplicate), second replicate” value is given as 0.613. In addition, the “Average (of Raw Data)” value in assay [1] (plate reader raw signal, mean of replicate wells, proliferation of human embryonic stem cells) was 0.1152.
Turning to `O=C1NC(=O)C(c2cccc3c2sc2ccccc23)=C1c1cn(CCCO)c2ncccc12` [Compound 34, 3-Dibenzo[b,d]thien-4-yl-4-[1-(3-hydroxypropyl)-1H-pyrrolo[2,3-b]pyridin-3-yl]-1H-pyrrole-2,5-dione], the viability at 10 µM in assay [2] is 83.5%. Further, the “Raw data (duplicate), first replicate” value in assay [2] (setting [3]) is given as 0.750. Also, the “Raw data (duplicate), second replicate” value in assay [2] (setting [4]) is recorded as 0.624. For the same compound, the Average in assay [2] (setting [5]) is 0.687; in assay [1] it was 0.1420.
Take `O=C1NC(=O)C2=C1c1cn(c3ccccc13)CCOCCOCCN(Cc1ccncc1)CCn1cc2c2ccccc21` [Compound 139, 14-(Pyridin-4-ylmethyl)-6,7,9,10,13,14,15,16-octahydro-12H,23H-5,26:17,22-di(metheno)dibenzo[k,q]pyrrolo[3,4-n][1,4,7,10,19]dioxatriazacyclohenicosine-23,25(24H)-dione]: the “Raw data (duplicate), first replicate” value in assay [2] (setting [3]) came out at 0.532. For the same compound, the “Raw data (duplicate), second replicate” value in assay [2] (setting [4]) worked out at 0.682. The Average in assay [2] (setting [5]) is given as 0.607. Moreover, the “% Control” value in assay [2] is 78.3%. Further, in assay [1], the “% Control Value (proliferation)” value is listed as 115.5%; the Average is recorded as 0.8650; the “Raw Data” value is 0.9184 and 0.8116.
With `O=C1NC(=O)C(c2cccc3c2oc2ccccc23)=C1c1cn(CCCO)c2ncccc12` [Compound 33, 3-Dibenzo[b,d]furan-4-yl-4-[1-(3-hydroxypropyl)-1H-pyrrolo[2,3-b]pyridin-3-yl]-1H-pyrrole-2,5-dione], in assay [2], the viability at 10 µM stood at 45.2%. Moreover, in assay [2] (setting [3]), the “Raw data (duplicate), first replicate” value is on record as 0.315. In addition, in assay [2] (setting [4]), the “Raw data (duplicate), second replicate” value was determined as 0.542. The values for the Average in assay [2] (setting [5]) and in assay [1] were 0.428 and 0.1889, respectively.
With `O=C1NC(=O)C2=C1c1cn(c3ccccc13)CCOCCOCCN(Cc1ccco1)CCn1cc2c2ccccc21` [Compound 127, 14-(Furan-2-ylmethyl)-6,7,9,10,13,14,15,16-octahydro-12H,23H-5,26:17,22-di(metheno)dibenzo[k,q]pyrrolo[3,4-n][1,4,7,10,19]dioxatriazacyclohenicosine-23,25(24H)-dione], the “Raw data (duplicate), first replicate” value in assay [2] (setting [3]) was 0.745 and 0.744. Also, the “Raw data (duplicate), second replicate” value in assay [2] (setting [4]) was 0.685 and 0.737. The Average in assay [2] (setting [5]) was 0.715 and 0.741. Further, the “% Control” value in assay [2] is 90.2% and 94.1%. Further, in assay [1], the “% Control Value (proliferation)” value was 136.8% and 124.4%; the Average was 0.9229 and 1.0032; the “Raw Data” value was 0.9589 and 0.8868 and 1.0442 and 0.9622.
As to `O=C1NC(=O)C(c2cn(CCCO)c3ncccc23)=C1c1cc2ccccc2o1` [Compound 241, 3-(1-Benzofuran-2-yl)-4-[1-(3-hydroxypropyl)-1H-pyrrolo[2,3-b]pyridin-3-yl]-1H-pyrrole-2,5-dione], the viability at 10 µM in assay [2] worked out at 85.3%.
As to `COCCCn1cc(C2=C(c3ccccc3OC)C(=O)NC2=O)c2cnccc21` [Compound 55, 3-[2-(Methyloxy)phenyl]-4-{1-[3-(methyloxy)propyl]-1H-pyrrolo[3,2-c]pyridin-3-yl}-1H-pyrrole-2,5-dione], the viability at 10 µM in assay [2] turned out to be 115%. For the same compound, the “Raw data (duplicate), first replicate” value in assay [2] (setting [3]) is reported as 0.952. In addition, the “Raw data (duplicate), second replicate” value in assay [2] (setting [4]) was found to be 0.919. The Average in assay [2] (setting [5]) turned out to be 0.935. Also, in assay [1], the activity at 10 µM came to 152% and the Average turned out to be 1.1695.
For the compound `Cn1ccc(C2=C(c3cn(CCCC#N)c4ncccc34)C(=O)NC2=O)n1` [Compound 94, 4-{3-[4-(1-Methyl-1H-pyrazol-3-yl)-2,5-dioxo-2,5-dihydro-1H-pyrrol-3-yl]-1H-pyrrolo[2,3-b]pyridin-1-yl}butanenitrile], the viability at 10 µM in assay [2] came out at 95%. In addition, the “Raw data (duplicate), first replicate” value in assay [2] (setting [3]) is given as 0.810. Also, the “Raw data (duplicate), second replicate” value in assay [2] (setting [4]) is given as 0.683. For the same compound, the results for the Average in assay [2] (setting [5]) and in assay [1] were 0.746 and 0.9819, respectively. Moreover, the activity at 10 µM in assay [1] came out at 146%.
As to `COc1ncc(C2=C(c3cn(CCCC#N)c4ncccc34)C(=O)NC2=O)c(OC)n1` [Compound 74, 4-(3-{4-[2,4-Bis(methyloxy)pyrimidin-5-yl]-2,5-dioxo-2,5-dihydro-1H-pyrrol-3-yl}-1H-pyrrolo[2,3-b]pyridin-1-yl)butanenitrile], the viability at 10 µM in assay [2] is 78.8%. Further, the activity at 10 µM in assay [1] came out at 130%.
Regarding `Cn1cc(C2=C(c3nn(CC(=O)NCCO)c4ccccc34)C(=O)NC2=O)c2cc(Cl)ccc21` [Compound 82, 2-{3-[4-(5-Chloro-1-methyl-1H-indol-3-yl)-2,5-dioxo-2,5-dihydro-1H-pyrrol-3-yl]-1H-indazol-1-yl}-N-(2-hydroxyethyl)acetamide], the viability at 10 µM in assay [2] was determined as 95%. Besides, in assay [2] (setting [3]), the “Raw data (duplicate), first replicate” value came out at 0.684. Moreover, the “Raw data (duplicate), second replicate” value in assay [2] (setting [4]) is given as 0.809. In addition, the Average in assay [2] (setting [5]) is recorded as 0.746. In addition, in assay [1], the activity at 10 µM was determined as 131% and the Average worked out at 0.8929.
With `O=C1NC(=O)C(c2nn(CCCO)c3ccccc23)=C1c1cn(C2CCOCC2)c2ccccc12` [Compound 78, 3-[1-(3-Hydroxypropyl)-1H-indazol-3-yl]-4-[1-(tetrahydro-2H-pyran-4-yl)-1H-indol-3-yl]-1H-pyrrole-2,5-dione], the viability at 10 µM in assay [2] was 22%. Moreover, the “Raw data (duplicate), first replicate” value in assay [2] (setting [3]) is 0.300. Besides, the “Raw data (duplicate), second replicate” value in assay [2] (setting [4]) amounted to 0.223. The compound further gave an Average in assay [2] (setting [5]) of 0.261. In assay [1], the activity at 10 µM stood at 154% and the Average worked out at 1.0282.
